# Results: patent US12629319B2, “Injection apparatus and method of use” (MOBIUS THERAPEUTICS, INC., priority 2020, dated 2026)
# System: Glaucoma patients
# Assay: Clinical study: subtenon injection of MMC versus MMC-soaked sponges in trabeculectomy
# Procedure: A clinical study was set up to compare the efficacy and safety of subtenon injection of mitomycin C (MMC) using the instant injection system and kits, with that of conventional application of MMC-soaked sponges in trabeculectomy. Glaucoma patients were randomized into two groups; group 1 received a subtenon injection of 0.1 mL of 0.01% MMC by the second sterile syringe, while group 2 received 0.02% MMC-soaked Weck-Cel® sponges to physically disperse the MMC. The injection was placed in the far posterior fornix on a 30-gauge needle prior to the conjunctival peritomy for trabeculectomy. Primary outcome measure is intraocular pressure (IOP), and secondary outcome measures are endothelial cell count (ECC) changes and bleb morphology according to the Indiana Bleb Appearance Grading Scale. Outcome measures were compared at 1, 3 and 6 months postoperatively. Complete and qualified success was defined as IOP within 6-15 mm Hg without and with medications at month 6, respectively.
# Data was to be presented in the form of mean, SD, median and range, frequency and percentage values. Normal distribution of data was assessed by Kolmogrov-Smirnov test and Q-Q plot. To evaluate differences between the study groups, χ2, t-test and Mann-Whitney tests. Wilcoxon singed-rank test and the linear mixed model were used to assess changes within the study groups. The Wilcoxon singed-rank test is followed by Bonferroni correction to consider multiple comparisons. To compare the groups adjusted for baseline values, analysis of covariance and Poisson regression (based on the type of response) were used. All statistical analyses were performed using SPSS software (IBM SPSS Statistics for Windows, V. 23.0, Released 2014, IBM, Armonk, New York, USA). All tests were two-sided and p values less than 0.05 were considered statistically significant.
smiles,measurement,setting,value
"CO[C@@]12[C@H](COC(N)=O)C3=C(C(=O)C(C)=C(N)C3=O)N1C[C@@H]1N[C@@H]12 [MMC, mitomycin C]",dependence on glaucoma medications,"MMC injection compared to cellulose sponge delivery, trabeculectomy",decreased
same,bleb morphology (Indiana Bleb Appearance Grading Scale),MMC injection compared to trabeculectomies performed with sponges,more favorable
same,overall study conclusion for MMC injection versus sponge delivery,MMC injection through the instant apparatus and kits,non-inferiority with improved predictability
same,intraocular pressure (IOP),"subtenon injection of 0.1 mL of 0.01% MMC compared to 0.02% MMC-soaked cellulose sponges, trabeculectomy, 1, 3 and 6 months postoperatively",lower
